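Results reflect a 48-hour exposure of cells in 96-well plates to compound at five concentrations. GI50: concentration for 50% inhibition of growth.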 Active and inactive are the calls of the source. Cut-off read from the data, not from the text of the source: active = GI50 up to about 1.1 µM and inactive = higher.
Key:
Test in all cases: inhibition of tumour cell growth, NCI panel, 48 h
786-0 = test system: 786-0
A498 = test system: A498
A549 = test system: A549
ACHN = test system: ACHN
CAKI-1 = test system: CAKI-1
CCRF-CEM = test system: CCRF-CEM
COLO 205 = test system: COLO 205
DLD-1 = test system: DLD-1
DMS-114 = test system: DMS-114
DMS-273 = test system: DMS-273
EKVX = test system: EKVX
HCT-116 = test system: HCT-116
HCT-15 = test system: HCT-15
HL-60 = test system: HL-60
HOP-18 = test system: HOP-18
HOP-62 = test system: HOP-62
HOP-92 = test system: HOP-92
HT-29 = test system: HT-29
IGROV-1 = test system: IGROV-1
K562 = test system: K562
KM-20L2 = test system: KM-20L2
KM12 = test system: KM12
LXFL 529 = test system: LXFL 529
M14 = test system: M14
M19-MEL = test system: M19-MEL
MOLT-4 = test system: MOLT-4
Malme-3M = test system: Malme-3M
NCI-H226 = test system: NCI-H226
NCI-H23 = test system: NCI-H23
NCI-H460 = test system: NCI-H460
NCI-H522 = test system: NCI-H522
OVCAR-3 = test system: OVCAR-3
OVCAR-4 = test system: OVCAR-4
OVCAR-8 = test system: OVCAR-8
RPMI-8226 = test system: RPMI-8226
SF-268 = test system: SF-268
SF-295 = test system: SF-295
SF-539 = test system: SF-539
SK-MEL-28 = test system: SK-MEL-28
SK-MEL-2 = test system: SK-MEL-2
SK-MEL-5 = test system: SK-MEL-5
SK-OV-3 = test system: SK-OV-3
SN12C = test system: SN12C
SNB-19 = test system: SNB-19
SNB-75 = test system: SNB-75
SNB-78 = test system: SNB-78
SR = test system: SR
SW-620 = test system: SW-620
TK-10 = test system: TK-10
U-251 = test system: U-251
UACC-257 = test system: UACC-257
UACC-62 = test system: UACC-62
UO-31 = test system: UO-31
XF498 = test system: XF498
HCC 2998 = test system: HCC 2998
LOX IMVI = test system: LOX IMVI
OVCAR-5 = test system: OVCAR-5
RXF 393 = test system: RXF 393

N#CC(N)(C(=O)CCC(=O)Nc1cccc(Cl)c1)c1ccc(Cl)cc1 (stereo unspecified)
GI50 (786-0): > 100 µM (inactive) | GI50 (A498): > 100 µM (inactive) | GI50 (A549): > 100 µM (inactive) | GI50 (ACHN): > 100 µM (inactive) | GI50 (CAKI-1): > 100 µM (inactive) | GI50 (CCRF-CEM): > 100 µM (inactive) | GI50 (COLO 205): > 100 µM (inactive) | GI50 (DLD-1): > 100 µM (inactive) | GI50 (DMS-114): > 100 µM (inactive) | GI50 (DMS-273): > 100 µM (inactive) | GI50 (EKVX): > 100 µM (inactive) | GI50 (HCT-116): > 100 µM (inactive) | GI50 (HCT-15): > 100 µM | GI50 (HL-60): > 100 µM (inactive) | GI50 (HOP-18): > 100 µM (inactive) | GI50 (HOP-62): > 100 µM (inactive) | GI50 (HOP-92): > 100 µM (inactive) | GI50 (HT-29): > 100 µM (inactive) | GI50 (IGROV-1): > 100 µM (inactive) | GI50 (K562): > 100 µM (inactive) | GI50 (KM-20L2): > 100 µM (inactive) | GI50 (KM12): > 100 µM (inactive) | GI50 (LXFL 529): > 100 µM (inactive) | GI50 (M14): > 100 µM (inactive) | GI50 (M19-MEL): > 100 µM (inactive) | GI50 (MOLT-4): > 100 µM (inactive) | GI50 (Malme-3M): > 100 µM (inactive) | GI50 (NCI-H226): > 100 µM (inactive) | GI50 (NCI-H23): > 100 µM (inactive) | GI50 (NCI-H460): > 100 µM (inactive) | GI50 (NCI-H522): > 100 µM (inactive) | GI50 (OVCAR-3): > 100 µM (inactive) | GI50 (OVCAR-4): > 100 µM (inactive) | GI50 (OVCAR-8): > 100 µM (inactive) | GI50 (RPMI-8226): > 100 µM (inactive) | GI50 (SF-268): > 100 µM (inactive) | GI50 (SF-295): > 100 µM (inactive) | GI50 (SF-539): > 100 µM (inactive) | GI50 (SK-MEL-28): > 100 µM (inactive) | GI50 (SK-MEL-2): > 100 µM (inactive) | GI50 (SK-MEL-5): > 100 µM (inactive) | GI50 (SK-OV-3): > 100 µM (inactive) | GI50 (SN12C): > 100 µM (inactive) | GI50 (SNB-19): > 100 µM (inactive) | GI50 (SNB-75): > 100 µM (inactive) | GI50 (SNB-78): > 100 µM (inactive) | GI50 (SR): > 100 µM (inactive) | GI50 (SW-620): > 100 µM (inactive) | GI50 (TK-10): > 100 µM (inactive) | GI50 (U-251): > 100 µM (inactive) | GI50 (UACC-257): > 100 µM (inactive) | GI50 (UACC-62): > 100 µM (inactive) | GI50 (UO-31): > 100 µM (inactive) | GI50 (XF498): > 100 µM (inactive)

COc1ccc(CC2=NCCc3cc(OC)c(OC)cc32)cc1Br
GI50 (786-0): 5.78 µM (inactive) | GI50 (A498): 13.1 µM (inactive) | GI50 (A549): 21.6 µM (inactive) | GI50 (ACHN): 12.9 µM (inactive) | GI50 (CAKI-1): 12.1 µM (inactive) | GI50 (CCRF-CEM): 12.4 µM (inactive) | GI50 (COLO 205): 14.6 µM (inactive) | GI50 (DLD-1): 19.1 µM (inactive) | GI50 (DMS-114): 10.2 µM (inactive) | GI50 (DMS-273): 12.7 µM (inactive) | GI50 (EKVX): 40.6 µM (inactive) | GI50 (HCC 2998): 14.1 µM (inactive) | GI50 (HL-60): 3.1 µM (inactive) | GI50 (HOP-18): > 100 µM (inactive) | GI50 (HOP-62): 4.36 µM (inactive) | GI50 (HOP-92): 0.644 µM (active) | GI50 (HT-29): 3.18 µM (inactive) | GI50 (IGROV-1): > 10 µM (inactive) | GI50 (K562): 3.66 µM (inactive) | GI50 (KM-20L2): 4.11 µM (inactive) | GI50 (KM12): 16.1 µM (inactive) | GI50 (LOX IMVI): 5.09 µM (inactive) | GI50 (LXFL 529): 7.36 µM (inactive) | GI50 (M19-MEL): 27.5 µM (inactive) | GI50 (MOLT-4): 6.18 µM (inactive) | GI50 (Malme-3M): 22.8 µM (inactive) | GI50 (NCI-H226): 4.38 µM (inactive) | GI50 (NCI-H23): 8.69 µM (inactive) | GI50 (NCI-H460): 6.19 µM (inactive) | GI50 (NCI-H522): 12 µM (inactive) | GI50 (OVCAR-4): 15.2 µM (inactive) | GI50 (OVCAR-5): 1.99 µM (inactive) | GI50 (OVCAR-8): 20.7 µM (inactive) | GI50 (RXF 393): 21.1 µM (inactive) | GI50 (SF-268): 41.7 µM (inactive) | GI50 (SF-295): 3.48 µM (inactive) | GI50 (SF-539): 24.7 µM (inactive) | GI50 (SK-MEL-28): 19.8 µM (inactive) | GI50 (SK-MEL-2): 33.4 µM (inactive) | GI50 (SK-MEL-5): 12.5 µM (inactive) | GI50 (SK-OV-3): 16.9 µM (inactive) | GI50 (SN12C): 15.8 µM (inactive) | GI50 (SNB-19): 12.7 µM (inactive) | GI50 (SNB-78): 58.1 µM (inactive) | GI50 (SR): 11.9 µM (inactive) | GI50 (SW-620): 7.52 µM (inactive) | GI50 (TK-10): 50 µM (inactive) | GI50 (U-251): 18.1 µM (inactive) | GI50 (UACC-257): 21.3 µM (inactive) | GI50 (UACC-62): 6.67 µM (inactive) | GI50 (UO-31): 16.8 µM (inactive) | GI50 (XF498): 22.8 µM (inactive)
